pIC50: −log10 of the molar value. Counter-ions that a name gives are not always drawn. Like-named read-outs stand apart in the source and are kept apart here.
Assays:
PDE4 = PDE4 (Homo sapiens, UniProt Q08499); assay: In-vitro assay for PDE4 enzymes, real-time enzyme-coupled spectrophotometric assay (Table 9); format: biochemical
PDE4B = PDE4B (Homo sapiens, UniProt Q07343); assay: In-vitro assay for PDE4 enzymes, real-time enzyme-coupled spectrophotometric assay, PDE4B Activity (Table 10); format: biochemical
[1] = human PDE4D, activity class, Table 9, read-out: hPDE4D
[2] = human PDE4B (hPDE4B), enzyme-coupled spectrophotometric assay, read-out: PDE4B Activity, hPDE4B

Chain of PDE4 (Q08499 whole entry): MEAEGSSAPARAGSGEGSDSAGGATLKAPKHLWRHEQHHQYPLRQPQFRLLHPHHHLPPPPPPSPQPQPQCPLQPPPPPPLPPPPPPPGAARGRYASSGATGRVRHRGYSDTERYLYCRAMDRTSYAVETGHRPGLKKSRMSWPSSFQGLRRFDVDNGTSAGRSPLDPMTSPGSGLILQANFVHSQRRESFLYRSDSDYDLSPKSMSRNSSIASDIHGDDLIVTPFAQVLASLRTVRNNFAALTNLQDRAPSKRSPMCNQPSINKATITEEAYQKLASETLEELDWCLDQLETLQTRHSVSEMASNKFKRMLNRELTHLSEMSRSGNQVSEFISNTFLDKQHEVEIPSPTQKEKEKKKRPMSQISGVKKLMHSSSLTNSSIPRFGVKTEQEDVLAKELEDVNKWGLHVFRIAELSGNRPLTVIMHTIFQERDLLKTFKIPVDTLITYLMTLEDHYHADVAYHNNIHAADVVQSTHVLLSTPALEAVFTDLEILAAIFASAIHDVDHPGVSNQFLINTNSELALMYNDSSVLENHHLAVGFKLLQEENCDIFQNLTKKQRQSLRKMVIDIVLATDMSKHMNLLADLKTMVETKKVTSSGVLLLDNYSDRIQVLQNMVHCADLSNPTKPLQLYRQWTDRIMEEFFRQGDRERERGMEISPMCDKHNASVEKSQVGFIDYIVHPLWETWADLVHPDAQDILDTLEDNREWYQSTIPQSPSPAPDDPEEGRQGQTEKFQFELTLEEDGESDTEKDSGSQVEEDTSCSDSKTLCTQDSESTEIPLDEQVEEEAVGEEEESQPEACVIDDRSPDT
Chain of PDE4B (Q07343 whole entry): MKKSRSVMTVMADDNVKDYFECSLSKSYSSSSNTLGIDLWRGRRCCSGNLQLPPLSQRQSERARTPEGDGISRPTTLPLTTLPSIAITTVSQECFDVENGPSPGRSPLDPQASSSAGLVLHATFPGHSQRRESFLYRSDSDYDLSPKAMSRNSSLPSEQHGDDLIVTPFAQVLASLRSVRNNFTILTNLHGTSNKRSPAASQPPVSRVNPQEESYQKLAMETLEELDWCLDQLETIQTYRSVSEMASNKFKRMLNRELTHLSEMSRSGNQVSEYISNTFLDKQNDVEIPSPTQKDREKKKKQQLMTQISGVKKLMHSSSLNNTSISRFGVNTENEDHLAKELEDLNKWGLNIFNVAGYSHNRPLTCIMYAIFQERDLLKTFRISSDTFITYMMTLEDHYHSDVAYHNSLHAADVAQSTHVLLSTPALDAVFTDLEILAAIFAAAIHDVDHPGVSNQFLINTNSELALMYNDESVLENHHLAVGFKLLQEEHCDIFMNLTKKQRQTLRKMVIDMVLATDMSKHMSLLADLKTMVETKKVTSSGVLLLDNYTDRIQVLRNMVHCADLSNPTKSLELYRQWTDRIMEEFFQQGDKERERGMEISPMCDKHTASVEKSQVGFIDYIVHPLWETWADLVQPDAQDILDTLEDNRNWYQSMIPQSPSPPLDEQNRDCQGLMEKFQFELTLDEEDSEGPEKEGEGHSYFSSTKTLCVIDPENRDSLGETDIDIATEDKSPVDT

Row | Structure (SMILES) | pIC50 (PDE4; [1]) | pIC50 (PDE4B; [2]) | pIC50 (PDE4) | pIC50 (PDE4B)
1 | COc1ccc(CN2CCCC2=O)cc1-c1ccc2c(c1)OCO2 [P-045, 1-(3-Benzo[1,3]dioxol-5-yl-4-methoxy-benzyl)-pyrrolidin-2-one] | 4.40 to 4.70 | 4.70 to 5.30 |  | 
2 | COc1ccc(Cn2ccc(N)cc2=O)cc1-c1cccc([N+](=O)[O-])c1 [P-215, 4-Amino-1-(6-methoxy-3′-nitro-biphenyl-3-ylmethyl)-1H-pyridin-2-one] | 4.70 to 5.30 | 4.70 to 5.30 |  | 
3 | COc1ccc(Cc2ccc(NS(C)(=O)=O)cc2)cc1-c1cccc(Cl)c1 [P-246, N-[4-(3′-Chloro-6-methoxy-biphenyl-3-ylmethyl)-phenyl]-methanesulfonamide] | 4.70 to 5.30 | > 5.30 |  | 
4 | COc1ccc(Oc2ccc(NS(C)(=O)=O)cc2)c(F)c1-c1cccc(Cl)c1 [P-254, N-[4-(3′-Chloro-2-fluoro-6-methoxy-biphenyl-3-yloxy)-phenyl]-methanesulfonamide] | 4.70 to 5.30 | > 5.30 |  | 
5 | COc1ccc(Cc2ccc(C(=O)N(C)C)nc2)c(F)c1-c1cccc(Cl)c1 [P-382, 5-(3′-Chloro-2-fluoro-6-methoxy-biphenyl-3-ylmethyl)-pyridine-2-carboxylic acid dimethylamide] | > 5.30 | > 5.30 |  | 
6 | COc1ccc(Cc2ccc(F)c(CO)c2)cc1-c1cccc([N+](=O)[O-])c1 [P-135] | > 5.30 | > 5.30 |  | 
7 | COc1ccc(Cn2ccnc2-c2cccs2)c(F)c1-c1cccc(Cl)c1 [P-559, 1-(3′-Chloro-2-fluoro-6-methoxy-biphenyl-3-ylmethyl)-2-thiophen-2-yl-1H-imidazole hydrochloride salt] | > 5.30 | > 5.30 |  | 
8 | O=[N+]([O-])c1cccc(-c2c(OC(F)F)ccc(Cc3ccc(F)cc3)c2F)c1 [P-116] | > 5.30 | > 5.30 |  | 
9 | COc1ccc(CN2CCCC2=O)cc1-c1cccc([N+](=O)[O-])c1 [P-029, 1-(6-Methoxy-3′-nitro-biphenyl-3-ylmethyl)-pyrrolidin-2-one] | > 5.30 | > 5.30 |  | 
10 | COc1ccc(Cc2ccc(NS(C)(=O)=O)c(O)c2)c(F)c1-c1cccc(Cl)c1 [P-264] | > 5.30 | 4.70 to 5.30 |  | 
11 | COc1ccc(Cc2ccncc2)cc1-c1ccc2nonc2c1 [P-011] | > 5.30 | > 5.30 |  | 
12 | COc1ccc(Cc2ccc(NC(N)=O)cc2)c(F)c1-c1cccc([N+](=O)[O-])c1 [P-181] | > 5.30 | > 5.30 |  | 
13 | NC(=O)Nc1ccc(Cc2ccc(OC[C@@H]3CCCN3)c(-c3cccc(Cl)c3)c2)cc1 [P-563, {4-[3′-Chloro-6-((S)-1-pyrrolidin-2-ylmethoxy)-biphenyl-3-ylmethyl]-phenyl}-urea] | > 5.30 | 4.70 to 5.30 |  | 
14 | COc1cccc(-c2cc(CN3CCCC3=O)ccc2OC)c1 [P-184, 1-(6,3′-Dimethoxy-biphenyl-3-ylmethyl)-pyrrolidin-2-one] | 4.70 to 5.30 | 4.70 to 5.30 |  | 
15 | CCNC(=O)OCc1ccc(Cc2ccc(OC)c(-c3cccc(Cl)c3)c2)cn1 [P-570, Ethyl-carbamic acid 5-(3′-chloro-6-methoxy-biphenyl-3-ylmethyl)-pyridin-2-ylmethyl ester hydrochloride] | > 5.30 | > 5.30 |  | 
16 | COc1ccc(Cc2ccc(OCCN3CCCC3)cc2)cc1-c1cccc([N+](=O)[O-])c1 [P-165] | > 5.30 | 4.70 to 5.30 |  | 
17 | CNc1ccc(Cc2ccc(OC)c(-c3cccc(C(C)=O)c3)c2F)cn1 [P-336] | > 5.30 | > 5.30 |  | 
18 | COc1ccc(Cc2cccc(O)c2)c(F)c1-c1cccc(Cl)c1 [P-217] | > 5.30 | > 5.30 |  | 
19 | COc1ccc(Cn2cnnc2)cc1-c1cccc([N+](=O)[O-])c1 [P-066, 4-(6-Methoxy-3′-nitro-biphenyl-3-ylmethyl)-4H-[1,2,4]triazole] | > 5.30 | > 5.30 |  | 
20 | NC(=O)Oc1ccc(Cc2ccc(=O)[nH]n2)cc1-c1cccc([N+](=O)[O-])c1 [P-020, Carbamic acid 3′-nitro-5-(6-oxo-1,6-dihydro-pyridazin-3-ylmethyl)-biphenyl-2-yl ester] |  |  | 4.70 to 5.30 | 4.40 to 4.68
21 | COc1ccc(CN2C(=O)c3cccnc3C2=O)cc1-c1cccc([N+](=O)[O-])c1 [P-055, 6-(6-Methoxy-3′-nitro-biphenyl-3-ylmethyl)-pyrrolo[3,4-b]pyridine-5,7-dione] | > 5.30 | 4.70 to 5.30 |  | 
22 | CCNC(=O)Nc1ncc(Cc2ccc(OC)c(-c3cccc(Cl)c3)c2F)cn1 [P-619] | > 5.30 | > 5.30 |  | 
23 | COc1ccc(Cc2ccc(F)cc2)cc1-c1cccc(-c2nnco2)c1 [P-118, 2-[5′-(4-Fluoro-benzyl)-2′-methoxy-biphenyl-3-yl]-[1,3,4]oxadiazole] | > 5.30 | > 5.30 |  | 
24 | COc1ccc(COc2ccc(Cl)nc2)c(F)c1-c1cccc(Cl)c1 [P-585] | > 5.30 | > 5.30 |  | 

Continued, in another order:

Row | pIC50 (PDE4; [1]) | pIC50 (PDE4B; [2]) | Structure (SMILES) | pIC50 (PDE4) | pIC50 (PDE4B)
25 | > 5.30 | > 5.30 | CCNC(=O)NCc1ccc(Cc2ccc(OC)c(-c3cccc(Cl)c3)c2F)cn1 [P-372, 1-[5-(3′-Chloro-2-fluoro-6-methoxy-biphenyl-3-ylmethyl)-pyridin-2-ylmethyl]-3-ethyl-urea] |  | 
26 | > 5.30 | > 5.30 | COc1ccc(Cc2ccc(O)cc2)cc1-c1cccc([N+](=O)[O-])c1 [P-142] |  | 
27 | > 5.30 | > 5.30 | COc1ccc(Cc2ccc(OC)c(-c3cccc(Cl)c3)c2F)cn1 [P-225] |  | 
28 | > 5.30 | > 5.30 | COc1ccc(Cn2cncn2)cc1-c1ccc2c(c1)OCO2 [P-044, 1-(3-Benzo[1,3]dioxol-5-yl-4-methoxy-benzyl)-1H-[1,2,4]triazole] |  | 
29 | > 5.30 | 4.70 to 5.30 | COc1ccc(CN2C(=O)CCC2=O)cc1-c1cccc([N+](=O)[O-])c1 [P-036, 1-(6-Methoxy-3′-nitro-biphenyl-3-ylmethyl)-pyrrolidine-2,5-dione] |  | 
30 | > 5.30 | > 5.30 | CCOC(=O)NCc1ccc(Cc2ccc(OC)c(-c3cccc(Cl)c3)c2F)cn1 [P-367, [5-(3′-Chloro-2-fluoro-6-methoxy-biphenyl-3-ylmethyl)-pyridin-2-ylmethyl]-carbamic acid ethyl ester] |  | 
31 | > 5.30 | > 5.30 | COc1ccc(Cc2ccc(Cl)nc2)c(F)c1-c1cccc([N+](=O)[O-])c1 [P-152] |  | 
32 | > 5.30 | > 5.30 | COc1ccc(Cc2cnc(N3CC(O)C3)nc2)c(F)c1-c1cccc(C#N)c1 [P-417, 2′-Fluoro-3′-[2-(3-hydroxy-azetidin-1-yl)-pyrimidin-5-ylmethyl]-6′-methoxy-biphenyl-3-carbonitrile] |  | 
33 | > 5.30 | > 5.30 | COc1ccc(Cc2ccc(C(N)=O)nc2)c(F)c1-c1cccc(C(C)=O)c1 [P-328, 5-(3′-Acetyl-2-fluoro-6-methoxy-biphenyl-3-ylmethyl)-pyridine-2-carboxylic acid amide] |  | 
34 | > 5.30 | > 5.30 | COc1ccc(Cc2ccc(N3CCC3)nc2)cc1-c1cccc(Cl)c1 [P-568, 2-azetidin-1-yl-5-(3′-chloro-6-methoxy-biphenyl-3-ylmethyl)-pyridine] |  | 
35 | > 5.30 | > 5.30 | COc1ccc(Cc2cnc(N)s2)c(F)c1-c1cccc(Cl)c1 [P-369, 5-(3′-Chloro-2-fluoro-6-methoxy-biphenyl-3-ylmethyl)-thiazol-2-ylamine] |  | 
36 | > 5.30 | > 5.30 | COc1ccc(Cc2ccc(NCCO)nc2)c(F)c1-c1cccc(Cl)c1 [P-411] |  | 

From US8791267B2, “Biaryl PDE4 inhibitors for treating inflammatory, cardiovascular and CNS disorders” (Decode Genetics EHF, priority 2007, dated 2014)
